Activity calls are given as the source filed them.
Experiments:
[1] = target: Sphingosine 1-phosphate receptor 2 (Homo sapiens, UniProt O95136); assay: Dose Response Cell Based Assay for Agonists of the S1P2 Receptor of Purchased Analogues. [Related pubchem assays: 729, 843, 854, 736 ]; assay type: functional
Cytochrome P450 2C19 = Cytochrome P450 2C19 (Homo sapiens, UniProt P33261); assay: qHTS Assay for Inhibitors and Substrates of Cytochrome P450 2C19. [Related pubchem assays: 410 ]; assay type: ADME; conditions: read-out: Potency
Cytochrome P450 2C19, sequence (P33261 whole entry): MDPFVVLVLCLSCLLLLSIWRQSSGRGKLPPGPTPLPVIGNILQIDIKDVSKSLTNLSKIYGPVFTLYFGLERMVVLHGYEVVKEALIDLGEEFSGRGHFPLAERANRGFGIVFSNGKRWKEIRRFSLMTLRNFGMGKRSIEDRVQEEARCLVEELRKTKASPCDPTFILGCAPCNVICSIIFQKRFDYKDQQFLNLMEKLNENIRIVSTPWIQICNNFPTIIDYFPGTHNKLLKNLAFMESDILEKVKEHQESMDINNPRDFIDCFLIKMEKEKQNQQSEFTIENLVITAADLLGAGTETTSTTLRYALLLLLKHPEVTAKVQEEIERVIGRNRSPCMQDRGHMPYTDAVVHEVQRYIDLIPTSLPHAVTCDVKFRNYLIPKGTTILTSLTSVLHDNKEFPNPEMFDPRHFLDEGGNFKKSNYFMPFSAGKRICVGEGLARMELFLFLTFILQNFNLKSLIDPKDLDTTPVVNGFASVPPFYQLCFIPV

NADPH oxidase 1 = NADPH oxidase 1 (Homo sapiens, UniProt Q9Y5S8); assay type: functional, cell-based;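 further: Cell-based assay with luminescence read-out, IC50 derived from inhibitor dose-response curves; intracellular ROS from endogenous NOX1 in intact HT29 colon cancer cells; potency of inhibitors that lower the ROS luminescence signal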
NADPH oxidase 1, sequence (Q9Y5S8 whole entry): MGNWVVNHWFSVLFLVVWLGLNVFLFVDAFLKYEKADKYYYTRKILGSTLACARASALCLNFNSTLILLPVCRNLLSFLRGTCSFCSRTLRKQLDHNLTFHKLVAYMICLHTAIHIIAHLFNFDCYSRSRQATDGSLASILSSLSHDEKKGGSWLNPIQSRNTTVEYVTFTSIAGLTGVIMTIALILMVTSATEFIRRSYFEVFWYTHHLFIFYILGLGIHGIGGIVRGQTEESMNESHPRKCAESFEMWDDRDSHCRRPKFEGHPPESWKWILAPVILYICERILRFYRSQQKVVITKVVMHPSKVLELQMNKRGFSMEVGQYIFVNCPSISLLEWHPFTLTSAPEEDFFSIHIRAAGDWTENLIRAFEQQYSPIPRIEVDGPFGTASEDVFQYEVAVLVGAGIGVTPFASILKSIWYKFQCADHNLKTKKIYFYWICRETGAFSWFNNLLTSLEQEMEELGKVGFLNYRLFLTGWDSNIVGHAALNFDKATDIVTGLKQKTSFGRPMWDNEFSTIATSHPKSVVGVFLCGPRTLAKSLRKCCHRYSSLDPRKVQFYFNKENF

Bcl-2-related protein A1 [2] = target: T1, Bcl-2-related protein A1 (Mus musculus, UniProt Q07440); assay: displacement of Bid BH3 peptide from Bfl-1 – biochemical, fluorescence polarization, FITC-Bid, mouse, primary screen (AID 432)
T1 sequence (Q07440 whole entry): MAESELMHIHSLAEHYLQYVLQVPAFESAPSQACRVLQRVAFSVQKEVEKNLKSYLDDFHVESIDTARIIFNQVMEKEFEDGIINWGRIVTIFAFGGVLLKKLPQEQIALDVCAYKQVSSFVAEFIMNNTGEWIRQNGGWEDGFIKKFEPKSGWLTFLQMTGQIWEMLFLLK

Bcl-2-related protein A1 [3] = target: T1, Bcl-2-related protein A1; assay: small-molecule antagonists of Bfl-1/BH3 interaction – biochemical, TR-FRET, mouse Bfl-1, confirmation (AID 621);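 further: TR-FRET binding of GST-Bfl-1 to FITC-labelled Bid peptide via terbium antibody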
[4] = target: Aryl hydrocarbon receptor (Homo sapiens, UniProt P35869); assay: Luminescence-based cell-based high throughput dose response assay for activators of the Aryl Hydrocarbon Receptor (AHR). [Related pubchem assays: 2796 (Primary screen (AHR activators in singlicate)), 2845 (Confirmation screen (AHR activators in triplicate)), 434939 (Counterscreen (PXR activators in triplicate)), 2804 (Summary (AHR activators))]; assay type: ADME
Aryl hydrocarbon receptor, sequence (P35869 whole entry): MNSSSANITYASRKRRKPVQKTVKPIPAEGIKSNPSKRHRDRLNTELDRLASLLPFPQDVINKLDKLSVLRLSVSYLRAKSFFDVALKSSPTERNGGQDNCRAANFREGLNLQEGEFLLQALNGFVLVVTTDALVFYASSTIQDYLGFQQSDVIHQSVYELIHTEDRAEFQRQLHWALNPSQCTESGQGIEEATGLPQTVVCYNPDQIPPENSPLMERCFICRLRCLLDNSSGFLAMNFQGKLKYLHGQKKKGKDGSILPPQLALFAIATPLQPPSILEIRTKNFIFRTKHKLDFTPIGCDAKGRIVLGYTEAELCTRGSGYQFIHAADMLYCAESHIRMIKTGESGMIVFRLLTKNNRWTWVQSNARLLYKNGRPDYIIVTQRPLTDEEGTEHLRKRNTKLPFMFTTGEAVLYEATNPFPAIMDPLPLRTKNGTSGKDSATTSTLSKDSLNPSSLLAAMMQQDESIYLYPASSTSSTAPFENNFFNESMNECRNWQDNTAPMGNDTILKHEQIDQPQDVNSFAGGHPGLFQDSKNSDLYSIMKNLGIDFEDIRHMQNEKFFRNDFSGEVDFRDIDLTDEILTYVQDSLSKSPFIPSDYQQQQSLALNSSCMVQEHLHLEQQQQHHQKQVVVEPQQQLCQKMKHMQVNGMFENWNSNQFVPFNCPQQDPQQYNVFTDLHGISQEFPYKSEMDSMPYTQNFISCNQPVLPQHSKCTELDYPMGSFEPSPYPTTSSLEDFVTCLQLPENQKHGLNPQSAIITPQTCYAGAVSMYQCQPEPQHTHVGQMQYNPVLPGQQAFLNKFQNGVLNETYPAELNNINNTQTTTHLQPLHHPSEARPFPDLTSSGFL

[5] = target: Serine/threonine-protein phosphatase PP1-alpha catalytic subunit (Homo sapiens, UniProt P62136); assay: inhibition of protein phosphatase 1 activity – biochemical, fluorescence, dose response (AID 2394)
Serine/threonine-protein phosphatase PP1-alpha catalytic subunit, sequence (P62136 whole entry): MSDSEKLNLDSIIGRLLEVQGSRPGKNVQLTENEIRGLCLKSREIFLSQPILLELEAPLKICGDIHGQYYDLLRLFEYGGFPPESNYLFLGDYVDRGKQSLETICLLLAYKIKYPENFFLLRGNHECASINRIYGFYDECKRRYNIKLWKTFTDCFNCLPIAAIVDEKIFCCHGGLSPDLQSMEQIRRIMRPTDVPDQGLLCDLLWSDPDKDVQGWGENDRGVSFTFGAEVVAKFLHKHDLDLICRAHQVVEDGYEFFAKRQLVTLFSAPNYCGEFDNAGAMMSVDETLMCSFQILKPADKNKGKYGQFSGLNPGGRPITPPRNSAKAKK

SUMO-activating enzyme [6] = target: T2, SUMO-activating enzyme (Homo sapiens, UniProt Q9UBT2); assay: blockers of UBC9-mediated SUMO conjugation – biochemical, AlphaScreen, SUMOylation inhibitor project, confirmation (AID 2018); assay type: functional
T2 sequence (Q9UBE0 whole entry): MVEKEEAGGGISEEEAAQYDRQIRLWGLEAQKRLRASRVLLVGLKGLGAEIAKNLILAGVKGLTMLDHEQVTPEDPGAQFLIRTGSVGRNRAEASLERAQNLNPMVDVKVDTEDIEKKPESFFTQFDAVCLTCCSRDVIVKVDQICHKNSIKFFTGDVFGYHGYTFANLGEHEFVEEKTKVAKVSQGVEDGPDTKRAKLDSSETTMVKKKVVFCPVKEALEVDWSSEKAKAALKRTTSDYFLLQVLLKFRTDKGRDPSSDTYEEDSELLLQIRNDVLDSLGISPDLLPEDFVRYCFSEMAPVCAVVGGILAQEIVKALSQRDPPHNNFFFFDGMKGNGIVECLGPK
T2 sequence (Q9UBT2 whole entry): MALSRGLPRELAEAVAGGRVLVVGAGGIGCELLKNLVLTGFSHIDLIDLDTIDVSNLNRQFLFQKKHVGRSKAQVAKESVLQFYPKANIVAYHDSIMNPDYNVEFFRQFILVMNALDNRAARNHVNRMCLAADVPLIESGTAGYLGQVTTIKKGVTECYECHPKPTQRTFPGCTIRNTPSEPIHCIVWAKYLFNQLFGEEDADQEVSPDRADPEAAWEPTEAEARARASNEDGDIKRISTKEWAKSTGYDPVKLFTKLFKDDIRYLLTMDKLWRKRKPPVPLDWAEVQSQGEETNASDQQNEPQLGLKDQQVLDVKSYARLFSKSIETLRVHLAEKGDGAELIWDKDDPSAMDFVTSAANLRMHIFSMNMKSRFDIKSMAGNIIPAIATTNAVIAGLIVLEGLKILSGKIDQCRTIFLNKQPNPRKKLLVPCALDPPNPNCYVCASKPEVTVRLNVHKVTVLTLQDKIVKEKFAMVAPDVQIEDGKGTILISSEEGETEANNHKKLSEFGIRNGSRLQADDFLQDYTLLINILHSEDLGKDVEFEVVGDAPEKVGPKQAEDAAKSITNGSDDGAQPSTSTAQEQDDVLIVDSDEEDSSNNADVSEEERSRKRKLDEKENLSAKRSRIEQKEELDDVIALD

SUMO-activating enzyme [7] = target: T2, SUMO-activating enzyme; assay: blockers of SAE1/SAE2–UBC9 SUMO transfer – biochemical, HTRF, uHTS, primary screen (AID 2006); assay type: protein-complex assay
[8] = target: T3, Serine/threonine-protein phosphatase (Homo sapiens, UniProt Q9BPW0); assay: inhibition of protein phosphatase 5 activity – biochemical, fluorescence, dose response (AID 2395)
T3 sequence (Q9BPW0 whole entry): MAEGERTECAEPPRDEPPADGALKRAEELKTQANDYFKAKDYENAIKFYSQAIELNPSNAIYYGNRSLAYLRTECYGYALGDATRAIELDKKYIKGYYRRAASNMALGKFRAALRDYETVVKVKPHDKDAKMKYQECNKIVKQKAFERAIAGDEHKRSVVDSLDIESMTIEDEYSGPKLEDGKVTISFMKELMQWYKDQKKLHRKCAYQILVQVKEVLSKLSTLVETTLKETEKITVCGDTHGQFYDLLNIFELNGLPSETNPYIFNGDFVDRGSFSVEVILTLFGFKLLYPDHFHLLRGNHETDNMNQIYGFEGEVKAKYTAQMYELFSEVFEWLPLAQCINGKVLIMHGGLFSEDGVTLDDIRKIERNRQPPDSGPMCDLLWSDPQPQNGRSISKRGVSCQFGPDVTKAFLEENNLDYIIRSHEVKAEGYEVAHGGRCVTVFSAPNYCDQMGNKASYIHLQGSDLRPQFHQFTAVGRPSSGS

[9] = target: T4, Apoptotic protease-activating factor 1 (Homo sapiens, UniProt O14727); assay type: functional
T4 sequence (O14727 whole entry): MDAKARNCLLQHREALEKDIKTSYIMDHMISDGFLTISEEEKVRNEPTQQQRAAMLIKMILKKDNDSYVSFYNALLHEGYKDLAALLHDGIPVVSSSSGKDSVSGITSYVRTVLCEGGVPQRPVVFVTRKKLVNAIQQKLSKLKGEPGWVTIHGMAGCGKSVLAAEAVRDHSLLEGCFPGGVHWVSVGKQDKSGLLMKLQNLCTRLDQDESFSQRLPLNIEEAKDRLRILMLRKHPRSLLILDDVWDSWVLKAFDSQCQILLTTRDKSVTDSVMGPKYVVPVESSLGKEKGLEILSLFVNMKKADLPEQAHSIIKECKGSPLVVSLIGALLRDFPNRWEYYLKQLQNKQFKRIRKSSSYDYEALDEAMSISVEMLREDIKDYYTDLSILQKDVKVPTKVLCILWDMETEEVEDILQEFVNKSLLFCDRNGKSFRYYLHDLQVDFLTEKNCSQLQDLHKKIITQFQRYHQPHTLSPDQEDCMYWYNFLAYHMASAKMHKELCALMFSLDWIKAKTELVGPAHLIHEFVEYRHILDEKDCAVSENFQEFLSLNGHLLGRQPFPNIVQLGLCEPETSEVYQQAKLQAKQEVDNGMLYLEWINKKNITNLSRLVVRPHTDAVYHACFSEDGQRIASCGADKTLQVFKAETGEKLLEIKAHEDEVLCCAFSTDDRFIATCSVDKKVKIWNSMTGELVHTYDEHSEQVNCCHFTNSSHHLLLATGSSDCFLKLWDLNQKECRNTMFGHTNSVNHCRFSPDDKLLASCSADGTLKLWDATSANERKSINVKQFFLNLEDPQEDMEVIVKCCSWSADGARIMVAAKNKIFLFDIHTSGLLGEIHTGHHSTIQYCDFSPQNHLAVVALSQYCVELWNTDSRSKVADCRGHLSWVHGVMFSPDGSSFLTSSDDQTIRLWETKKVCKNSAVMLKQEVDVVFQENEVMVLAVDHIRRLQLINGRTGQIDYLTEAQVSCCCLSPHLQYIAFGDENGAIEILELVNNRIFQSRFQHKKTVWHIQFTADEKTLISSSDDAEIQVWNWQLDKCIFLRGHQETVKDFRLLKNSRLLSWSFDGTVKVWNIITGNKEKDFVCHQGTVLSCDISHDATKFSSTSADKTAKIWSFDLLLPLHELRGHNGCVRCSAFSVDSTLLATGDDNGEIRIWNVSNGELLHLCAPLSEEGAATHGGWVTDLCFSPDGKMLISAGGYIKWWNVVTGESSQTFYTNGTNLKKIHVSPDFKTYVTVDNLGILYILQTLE

[10] = target: Ras and Rab interactor 1/Tyrosine-protein kinase ABL1 (Homo sapiens, UniProt P00519+Q13671); assay type: functional;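 further: biochemical TR-FRET dose-response test measuring inhibition of binding between Rin1 and Abl proteins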
[11] = target: T5, Sentrin-specific protease 8 (Homo sapiens, UniProt Q96LD8); assay type: functional
T5 sequence (Q96LD8 whole entry): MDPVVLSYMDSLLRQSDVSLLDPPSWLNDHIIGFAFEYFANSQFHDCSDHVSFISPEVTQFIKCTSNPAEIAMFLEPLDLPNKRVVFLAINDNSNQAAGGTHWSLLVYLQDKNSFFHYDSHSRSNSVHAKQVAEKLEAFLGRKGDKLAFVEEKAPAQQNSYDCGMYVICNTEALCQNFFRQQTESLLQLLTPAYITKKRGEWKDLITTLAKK

[12] = target: T5, Sentrin-specific protease 8; assay type: functional; remark: listed apart in the source
[13] = target: T6, Histone-lysine N-methyltransferase NSD2 (Homo sapiens, UniProt O96028); assay type: biochemical
T6 sequence (O96028 whole entry): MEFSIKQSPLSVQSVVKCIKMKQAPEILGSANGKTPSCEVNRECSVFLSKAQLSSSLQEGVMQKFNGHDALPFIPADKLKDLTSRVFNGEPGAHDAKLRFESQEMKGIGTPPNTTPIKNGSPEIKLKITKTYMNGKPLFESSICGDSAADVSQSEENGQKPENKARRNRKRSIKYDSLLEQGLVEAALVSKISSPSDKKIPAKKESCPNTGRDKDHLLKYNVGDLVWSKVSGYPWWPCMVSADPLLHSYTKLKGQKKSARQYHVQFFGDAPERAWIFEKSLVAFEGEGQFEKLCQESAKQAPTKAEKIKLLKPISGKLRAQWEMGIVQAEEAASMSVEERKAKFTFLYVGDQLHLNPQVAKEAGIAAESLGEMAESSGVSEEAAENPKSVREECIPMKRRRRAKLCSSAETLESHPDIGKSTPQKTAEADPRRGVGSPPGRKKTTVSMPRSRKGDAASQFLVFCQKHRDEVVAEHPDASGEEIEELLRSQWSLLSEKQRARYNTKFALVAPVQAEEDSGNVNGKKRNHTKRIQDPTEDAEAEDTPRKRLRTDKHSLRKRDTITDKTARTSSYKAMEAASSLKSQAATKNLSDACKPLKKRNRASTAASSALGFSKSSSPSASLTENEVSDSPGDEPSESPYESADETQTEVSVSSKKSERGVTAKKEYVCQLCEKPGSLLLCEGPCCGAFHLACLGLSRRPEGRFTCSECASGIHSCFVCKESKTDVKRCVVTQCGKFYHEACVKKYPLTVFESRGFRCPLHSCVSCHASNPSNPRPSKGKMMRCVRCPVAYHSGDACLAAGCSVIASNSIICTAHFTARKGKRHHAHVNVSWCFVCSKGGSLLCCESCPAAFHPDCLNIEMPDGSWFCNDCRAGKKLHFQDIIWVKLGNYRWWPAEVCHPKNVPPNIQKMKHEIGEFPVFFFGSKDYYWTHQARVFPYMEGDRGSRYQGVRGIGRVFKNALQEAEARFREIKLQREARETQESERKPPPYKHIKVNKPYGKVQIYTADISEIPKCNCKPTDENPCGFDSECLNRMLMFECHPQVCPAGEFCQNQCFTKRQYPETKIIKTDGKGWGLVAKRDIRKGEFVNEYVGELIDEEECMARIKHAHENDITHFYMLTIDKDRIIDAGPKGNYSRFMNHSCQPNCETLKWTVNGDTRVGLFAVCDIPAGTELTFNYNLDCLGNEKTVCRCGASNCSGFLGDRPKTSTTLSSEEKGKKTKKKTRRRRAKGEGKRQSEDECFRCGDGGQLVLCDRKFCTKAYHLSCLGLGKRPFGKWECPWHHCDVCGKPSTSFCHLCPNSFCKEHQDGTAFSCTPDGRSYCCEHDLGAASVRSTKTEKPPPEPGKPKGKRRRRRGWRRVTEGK

[14] = target: Tyrosyl-DNA phosphodiesterase 2 (Homo sapiens, UniProt O95551); assay: potency against TDP2 phosphodiesterase activity – biochemical, epi absorbance, IC50, dose response (AID 743297)
Tyrosyl-DNA phosphodiesterase 2, sequence (O95551 whole entry): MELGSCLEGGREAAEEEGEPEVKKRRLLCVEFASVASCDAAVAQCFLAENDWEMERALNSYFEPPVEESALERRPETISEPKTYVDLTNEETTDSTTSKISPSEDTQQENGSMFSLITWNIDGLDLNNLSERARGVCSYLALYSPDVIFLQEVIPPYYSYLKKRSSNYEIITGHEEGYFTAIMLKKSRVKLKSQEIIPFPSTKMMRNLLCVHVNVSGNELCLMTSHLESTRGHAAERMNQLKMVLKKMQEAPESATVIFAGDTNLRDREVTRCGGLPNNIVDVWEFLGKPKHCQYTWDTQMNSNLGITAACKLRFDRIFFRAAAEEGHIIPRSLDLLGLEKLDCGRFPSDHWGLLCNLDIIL

Ephrin type-A receptor 4 = Ephrin type-A receptor 4 (Mus musculus, UniProt Q03137); assay: EphA4 ligand-binding antagonists – biochemical, colorimetric, mouse EphA4, primary screen (AID 689); assay type: functional
Ephrin type-A receptor 4, sequence (Q03137 whole entry): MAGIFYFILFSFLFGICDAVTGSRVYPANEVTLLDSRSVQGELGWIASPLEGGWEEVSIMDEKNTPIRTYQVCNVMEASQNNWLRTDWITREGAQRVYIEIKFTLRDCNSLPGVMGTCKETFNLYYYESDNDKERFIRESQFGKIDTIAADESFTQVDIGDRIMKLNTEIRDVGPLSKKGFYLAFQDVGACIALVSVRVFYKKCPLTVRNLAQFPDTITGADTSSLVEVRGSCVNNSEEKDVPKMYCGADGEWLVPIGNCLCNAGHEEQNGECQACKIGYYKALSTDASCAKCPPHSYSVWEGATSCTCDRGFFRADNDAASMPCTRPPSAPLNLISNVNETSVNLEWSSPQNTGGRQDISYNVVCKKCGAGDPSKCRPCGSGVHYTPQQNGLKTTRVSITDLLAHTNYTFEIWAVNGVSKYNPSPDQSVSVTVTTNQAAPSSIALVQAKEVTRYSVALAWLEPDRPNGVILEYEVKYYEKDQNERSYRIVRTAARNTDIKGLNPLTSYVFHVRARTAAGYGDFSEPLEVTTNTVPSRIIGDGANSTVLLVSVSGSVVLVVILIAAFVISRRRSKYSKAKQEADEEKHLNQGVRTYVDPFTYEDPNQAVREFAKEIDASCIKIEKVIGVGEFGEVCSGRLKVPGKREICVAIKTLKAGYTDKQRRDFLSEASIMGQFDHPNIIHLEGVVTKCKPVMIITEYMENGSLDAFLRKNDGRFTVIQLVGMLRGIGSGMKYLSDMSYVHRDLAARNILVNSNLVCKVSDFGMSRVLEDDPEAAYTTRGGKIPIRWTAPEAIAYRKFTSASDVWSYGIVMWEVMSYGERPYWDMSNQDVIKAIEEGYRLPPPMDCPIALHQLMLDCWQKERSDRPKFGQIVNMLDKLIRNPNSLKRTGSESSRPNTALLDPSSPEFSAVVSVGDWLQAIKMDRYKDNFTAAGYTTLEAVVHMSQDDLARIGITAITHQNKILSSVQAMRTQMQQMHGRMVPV

[15] = target: Mothers against decapentaplegic homolog 3 (Homo sapiens, UniProt P84022); assay: inhibitors of SMAD-driven TGF-beta signaling – dose response (AID 715); assay type: functional
Mothers against decapentaplegic homolog 3, sequence (P84022 whole entry): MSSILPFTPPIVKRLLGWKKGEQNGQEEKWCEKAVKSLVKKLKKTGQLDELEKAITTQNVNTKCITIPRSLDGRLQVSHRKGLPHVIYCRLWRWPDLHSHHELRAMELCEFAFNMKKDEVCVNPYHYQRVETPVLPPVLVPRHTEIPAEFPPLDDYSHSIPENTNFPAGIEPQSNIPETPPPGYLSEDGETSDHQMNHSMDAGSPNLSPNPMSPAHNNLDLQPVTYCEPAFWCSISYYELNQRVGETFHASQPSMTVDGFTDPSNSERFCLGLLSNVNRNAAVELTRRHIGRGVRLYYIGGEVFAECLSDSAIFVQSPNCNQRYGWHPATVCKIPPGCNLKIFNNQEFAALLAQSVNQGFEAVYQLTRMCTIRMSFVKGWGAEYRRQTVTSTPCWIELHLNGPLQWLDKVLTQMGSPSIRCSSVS

[16] = Luminescence Cell-Based Dose Response to Identify Activators of 5'UTR Stem-Loop Driven Prion Protein mRNA Translation in H4-C Neuroglioblastoma Cells. [Related pubchem assays: 1829 (Project Summary), 1814 (Primary HTS)]; assay type: functional
[17] = Luminescence Cell-Based Dose Confirmation HTS to Identify Activators of 5'UTR Stem-Loop Driven Alpha-Synuclein mRNA Translation in H4 Neuroglioblastoma Cells. [Related pubchem assays: 1829 (Project Summary), 1814 (Primary HTS)]; assay type: functional
[18] = Luminescence Cell-Based Dose Response HTS to Identify Activators of Luciferase Translation or Activity in H4 […] Cells. [Related pubchem assays: 1829 (Project Summary), 1814 (Primary HTS)]; assay type: functional
H4 = assay: Luminescence Cell-Based Dose Response HTS to Identify Activators of 5'UTR Stem-Loop Driven Prion Protein mRNA Translation in H4 Neuroglioblastoma Cells. [Related pubchem assays: 1829 (Project Summary), 1814 (Primary HTS)]; assay type: functional; conditions: Homo sapiens
[19] = Luminescence Cell-Based Dose Response to Identify Activators of Luciferase Translation or Activity in H4-C Neuroglioblastoma Cells. [Related pubchem assays: 1829 (Project Summary), 1814 (Primary HTS)]; assay type: functional
[20] = Luminescence Cell-Based Dose Confirmation to Identify Activators of 5'UTR Stem-Loop Driven Alpha-Synuclein mRNA Translation in H4 Neuroglioblastoma Cells. [Related pubchem assays: 1829 (Project Summary), 1814 (Primary HTS)]; assay type: functional

Compound: CC(=O)Nc1ccc(OCC(=O)c2cc(C)n(Cc3ccccc3)c2C)cc1
- EC50 [1]: > 30 µM (not active)

Compound: COC(=O)NC(c1cccc(F)c1)[C@]1(C(C)=O)CCCC1=O (some centres undefined)
- AC50 (Cytochrome P450 2C19): 2.51 µM (inconclusive)

Compound: O=C(Cc1ccc([N+](=O)[O-])cc1)Nc1ccc(Oc2ccccc2)cc1
- IC50 (NADPH oxidase 1): > 17 µM (not active)

Compound: CCCN1CC=C2C(C#N)=C(N)C(C#N)(C#N)C(c3cccc(OC)c3OC)C2C1 (centres undefined)
- IC50 (Bcl-2-related protein A1 [2]): > 100 µM (not active)
- IC50 (Bcl-2-related protein A1 [3]): > 100 µM (not active)

Compound: CCOCCc1nnc(NC(=O)c2ccc(OC)c(OC)c2)s1
- EC50 [4]: 6.13 µM (active)

Compound: CC(=O)C1=C(C)OC2(O)c3ccccc3C(=O)C12O (centres undefined)
- IC50 [5]: > 67 µM (not active)
- IC50 (SUMO-activating enzyme [6]): 3.09 µM (active)
- IC50 (SUMO-activating enzyme [7]): 16.6 µM (active)
- IC50 [8]: > 2.48 µM (active)
- IC50 [9]: 8.19 µM (active)
- IC50 [10]: > 73.4 µM (inactive)
- IC50 [11]: 0.455 µM (active)
- IC50 [12]: 0.754 µM (active)
- AC50 [13]: 4.82 µM (active)
- IC50 [14]: 7.52 µM (active)

Compound: O=C(CCN1C(=O)/C(=C/C=C/c2ccccc2)SC1=S)Nc1nccs1
- IC50 (Ephrin type-A receptor 4): > 100 µM (not active)

Compound: Cc1ccc(CCN2CC(C(=O)NCCCN3CCCCCC3)CC2=O)cc1 (centres undefined)
- IC50 [15]: 11.1 µM (active)

Compound: O=c1c2ccccc2ncn1/N=C/c1ccccc1
- EC50 [16]: 2.06 µM (active)
- EC50 [17]: < 0.1 µM (active)
- EC50 [18]: < 0.1 µM (active)
- EC50 (H4): 0.525 µM (active)
- EC50 [19]: 1.16 µM (active)
- EC50 [20]: 0.53 µM (active)

— ChEMBL document CHEMBL1201862, “PubChem BioAssay data set” (2004)
